Laboratory results as given in patent US20250032493A1, “Methods for Treating Diseases Using MALT1 Inhibitors” (RARIFIED BIOSCIENCES, INC., priority 2021, published 2025).
“Also recorded” adds a separate entry of the source.

What was measured:
[1] = test system: Tregs; test: Naïve mice: Treg levels after 4 weeks of dosing; format: in vivo; details: 100 mg/kg dose, in comparison to vehicle control
Experimental: Mice were dosed for 4 weeks with REO-751 or REO-095 and splenocytes were analyzed for Treg levels. Specifically, REO-751 or REO-095 MALT1 inhibitors were dosed at one of 1 mg/kg (mpk), 10 mg/kg (mpk), or 100 mg/kg (mpk).

[2] = test system: sclerodermatous GVHD (scGVHD) model; test: Mouse GVHD (scGVHD) model: GVHD score and progression-free survival; format: in vivo, mice; details: 100 mg/kg orally once daily days 21-56, at the end (Day 56)
Experimental: In this example, REO-751 MALT1 inhibitor at a dose of 100 mg/kg was administered to mice of a graft versus host disease (GVHD) model to investigate the impact of the administration of the MALT1 inhibitor. The effects of MALT1 inhibitors were evaluated in scGVHD and delayed-type hypersensitivity (DTH) models. For the scGVHD model, bone marrow (1E7 cells) and splenocytes (4E6) from LP/J donors were transferred to C57Bl/6 recipients that had received 8.5. Gy of total irradiation on the previous day. For the DTH model, female Balb/c mice were immunized with keyhole limpet hemocyanin (KLH) subcutaneously on day 0 and challenged with KLH intradermally 7 days later.
(§1) At time=0, mice were dosed with 1) naive, 2) vehicle, 3) REO-751 MALT1 inhibitor (100 mg/kg), or 4) ruxolitinib (60 mg/kg). […] GVHD scores were determined by monitoring the behavior of the mice post-administration according to the following grading system.
FIGS. 22A-22F show results following administration of a MALT1 inhibitor. Here, “Cpd1” and Cpd2” as shown in FIGS. 22A-22F refer to REO-751 MALT1 inhibitor. FIGS. 22A and 22B show overall survival (OS) and progression-free survival (PFS) Kaplan Meier curves, respectively, in a murine model of sclerodermatous GVHD (scGVHD) following administration of a MALT1 inhibitor. […]

[3] = test system: spleen TFH cells, GC B cells, Treg cells; test: Mouse GVHD model: spleen cell populations (TFH, GC B cells, Tregs); format: in vivo, mice
Source text: Here, FIGS. 22C-22E show percentages of each cell population in spleen, as measured by flow cytometry.

[4] = Mouse GVHD model: pharmacokinetics; format: in vivo, mice; details: C57Bl/6, blood, oral; 100 mg/kg, on Day 55, mouse GVHD model; read-out: concentration at 24 hours post-administration
Experimental: as §1

[5] = target: T1, MALT1 (Homo sapiens, UniProt Q9UDY8); test: IC50 and Kd values of MALT1 inhibitors (FIG. 17C)
T1 sequence (Q9UDY8 1-824): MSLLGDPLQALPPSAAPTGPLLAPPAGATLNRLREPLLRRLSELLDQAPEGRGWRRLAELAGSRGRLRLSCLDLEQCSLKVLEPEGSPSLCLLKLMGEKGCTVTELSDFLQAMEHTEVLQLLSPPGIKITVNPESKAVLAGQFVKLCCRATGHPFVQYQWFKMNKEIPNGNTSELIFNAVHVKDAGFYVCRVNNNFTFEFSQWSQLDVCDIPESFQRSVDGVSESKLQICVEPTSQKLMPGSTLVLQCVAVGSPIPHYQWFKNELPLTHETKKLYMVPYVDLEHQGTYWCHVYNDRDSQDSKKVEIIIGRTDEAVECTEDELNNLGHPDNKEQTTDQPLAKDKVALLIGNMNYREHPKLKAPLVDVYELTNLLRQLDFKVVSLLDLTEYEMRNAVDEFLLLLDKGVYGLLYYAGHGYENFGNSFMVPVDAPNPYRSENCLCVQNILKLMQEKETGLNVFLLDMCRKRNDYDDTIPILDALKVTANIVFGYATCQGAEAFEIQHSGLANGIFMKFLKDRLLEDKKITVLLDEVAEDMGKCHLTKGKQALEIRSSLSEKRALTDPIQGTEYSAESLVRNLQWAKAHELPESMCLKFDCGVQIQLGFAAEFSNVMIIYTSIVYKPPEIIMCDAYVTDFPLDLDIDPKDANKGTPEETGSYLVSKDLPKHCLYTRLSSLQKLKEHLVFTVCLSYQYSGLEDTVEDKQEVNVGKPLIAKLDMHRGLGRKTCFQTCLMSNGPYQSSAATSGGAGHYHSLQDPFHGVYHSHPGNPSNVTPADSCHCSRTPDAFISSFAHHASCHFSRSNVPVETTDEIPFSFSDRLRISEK

[6] = test system: splenic Tregs; test: Rat CIA model: splenic Treg levels; format: in vivo; details: for reduction in the Treg levels: in comparison to vehicle
Experimental: For isolation of synovial fluid prior to study termination, animals were anesthetized and the skin on the hind limbs were separated to ensure exposure of knee joint. A small incision was made near the top of the knee joint and the articular cavity was rinsed with 60 μl phosphate-buffered saline (PBS) for 2 time and ˜50-60 μl synovial fluid was collected. The synovial fluid samples were spun down, and the supernatant stored at −80° C. prior to cytokine analysis. At study termination, plasma was prepared from whole blood and stored at −80° C. prior to cytokine analysis and measurement of total and anti-collagen IgG. Single cell suspensions were prepared from harvested spleens following standard methods and Treg frequencies measured by flow cytometry-based immunophenotyping of freshly isolated cells.
Harvested spleens were homogenized in cold PBS and cellular debris removed by passing through a […] cell strainer. The cell suspension was centrifuged at 300×g for 5 min at 4° C. and the pellet was treated with 1×RBC lysis buffer per manufacturer's protocol (Thermofisher). The washed cell pellet was resuspended for a final concentration of 5-10×10^6 cells/ml and 100 μl of cell suspension was processed for immunophenotyping. […] Cells were washed with cold FACS wash buffer (BD) and fixed with 1×FoxP3/Transcription Factor Fixation Buffer (Thermofisher) for overnight at 4° C. […] Cells were washed 2-3× with the permeabilization and wash buffer as mentioned earlier, and finally resuspended in FACS wash buffer. Samples were acquired on a BD LSRFortessa flow cytometer and data analyzed using the FlowJo software (BD).

[7] = test system: rat collagen induced arthritis (CIA) model; test: Rat collagen-induced arthritis model: clinical score; details: for reduction in the clinical score: in comparison to the vehicle treatment
Source text: Adult female Lewis Rats (180-200 g body weight) were immunized subcutaneously with Type II bovine collagen/Incomplete Freund's Adjuvant emulsion on Day 0 and Day 7. On Day 14 rats were randomized based on clinical disease scores in different treatment groups. Rats received either once daily (q.d) dose of compounds via oral gavage or Vehicle (0.5% Carboxymethylcellulose-Na+0.5% Tween 80 in water, suspension) for 2 weeks. Naïve rats used as controls.

[8] = target: T1, MALT1; test: Example IC50 and IC90 values of MALT1 inhibitors (blood concentration targets); format: cell-based; details: example values, blood concentration target; read-out: IC90
Source text: In various embodiments, the plasma PK profile of the MALT1 inhibitor refers to a time over an IC50 blood concentration target following administration to the subject. As used herein, a “time over an IC50 blood concentration target” refers to a period of time following administration in which a concentration of the MALT1 inhibitor in the subject's blood is above the IC50 value.
In various embodiments, the plasma PK profile of the MALT1 inhibitor refers to a time over an IC90 blood concentration target following administration to the subject. As used herein, a “time over an IC90 blood concentration target” refers to a period of time following administration in which a concentration of the MALT1 inhibitor in the subject's blood is above the IC90 value.

[9] = test system: IL-2R signaling (pSTAT5); details: 1 μM, positive control
Experimental: Purified Tregs were expanded as indicated above. […] Tregs were then stimulated with 25 IU IL-2 (Peprotech) for 15 min, followed by fixation with 2% paraformaldehyde. […] Levels of pSTAT5 were analyzed on a BD LSRFortessa flow cytometer.
Next, the impact of MALT1i on IL2R signaling was investigated. IL-2R signaling results in phosphorylation of STAT5 (pSTAT5) and is dependent on JAK1/3. Therefore, a flow cytometric readout of pSTAT5 was used to measure IL-2R activity and the JAK1/3-inhibitor tofacitinib served as a positive control for inhibition of pSTAT5.

SMILES	reduction of Treg levels [1] [%]	reduction in the Treg levels ([6]; 3 mg/kg dose, CIA rats) [%]	reduction in the Treg levels ([6]; 10 mg/kg dose, CIA rats) [%]	reduction in the Treg levels ([6]; 30 mg/kg dose, CIA rats) [%]	reduction in the clinical score ([7]; 3 mg/kg dose) [%]	reduction in the clinical score ([7]; 10 mg/kg dose) [%]	reduction in the clinical score ([7]; 30 mg/kg dose) [%]	log10AUC value at ~50% reduction in the clinical score ([7]; rat CIA model) [μg*hr/mL]	dose-dependent efficacy (FIG. 12A) ([7]; rat CIA model)	IC90 [8] [µM]	further results
CO[C@@H](C)c1c(NC(=O)Nc2cnc(-n3nccn3)c(Cl)c2)cnc2cc(Cl)nn12 [REO-751]	76										mice achieving progression free survival [2]: 40%; difference in Treg with treatment [3]: No difference; concentration at 24 h [4]: 385 ng/mL; potency (IC50 values and Kd value) in comparison to REO-095 [5]: increased potency
CO[C@@H](C)c1c(Nc2ccc([C@H](N(C)C(=O)C3CCN(C(C)=O)CC3)C(F)(F)F)cc2)cnc2cc(Cl)nn12 [REO-076]		24	30	40	23	42	74	~1.85			log10AUC value at ~40% reduction in Treg levels ([6]; rat CIA model): ~2.25 μg*hr/mL
O=C(Nc1ccnc(C(F)(F)F)c1)Nc1cnn2ccc(Cl)c2c1C1CC1 [REO-703]					35	57	60	~1.2	showed efficacy in a rat CIA model in a dose-dependent manner	4.95	reduction in the Treg levels ([6]; CIA rats, 3, 10 and 30 mg/kg): none of the doses of REO-703 resulted in a statistically significant reduction; also recorded: did not exhibit reduction of Tregs
O=C(Nc1ccnc(C(F)(F)F)c1)c1cnn(-c2cccc3c(=O)[nH]ccc23)c1C(F)(F)F [REO-095]	32										
C[C@@H]1CCN(C(=O)CC#N)C[C@@H]1N(C)c1ncnc2[nH]ccc12 [tofacitinib, reference compound]											basal levels of pSTAT5 in Tregs [9]: reduced; reduction in the endpoint clinical score ([7]; 5 mg/kg dose): 75%
CO[C@@H](C)c1c(Nc2ccc([C@H](N(C)C(=O)C3CCS(=O)(=O)CC3)C(F)(F)F)cc2)cnc2cc(Cl)nn12 [REO-528]		3	36	37	24	59	74	~1.2	showed efficacy in a rat CIA model in a dose-dependent manner	5.78	dose-dependent reduction of Tregs (FIG. 12B) ([6]; rat CIA model): dose-dependent reduction of Tregs was observed; log10Cmax value at ~40% reduction in Treg levels ([6]; rat CIA model): ~3.9 ng/mL; log10Ctrough value at ~50% reduction in Treg levels ([6]; rat CIA model): ~2.6 ng/mL; qualitative Treg impact (FIG. 11) ([6]; rat CIA model): low Treg impact; log10Cmax value at ~50% reduction in the clinical score ([7]; rat CIA model): ~3.3 ng/mL; log10Ctrough value at ~50% reduction in the clinical score ([7]; rat CIA model): ~2.2 ng/mL; qualitative efficacy (FIG. 11) ([7]; rat CIA model): high efficacy
